pIC50: −log10 of the molar value.
How the values were obtained:
[1] = target: Recombinant human FGFR1 (Homo sapiens, UniProt P11362); test: Transcreener Kinase Assay of FGFR1; assay type: biochemical; settings: read-out: FGFR1 (FP) IC50
[2] = target: Recombinant human FGFR2 (Homo sapiens, UniProt P21802); test: Transcreener Kinase Assay of FGFR2; assay type: biochemical; settings: read-out: FGFR2 (FP) IC50
[3] = target: FGFR3 kinase (Homo sapiens, UniProt P22607); test: Z-Lyte Kinase Assay of FGFR3; assay type: biochemical
In short: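 FRET peptide-cleavage format: 1 h kinase reaction at RT (25-30[…]), then 1 h protease development, then stop and dual-emission read (Ex400, Em445/520 nm). Working solutions: kinase 0.7 μg/ml, Tyr 4 peptide 4 μM, ATP 300 uM in 1.33× buffer; eight compound concentrations from 1 μM, 2% DMSO final.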

[4] = tested on: KG-1; test: Cellular Proliferation Assay (Cell Counting Kit-8), KG-1; assay type: cell-based; settings: Homo sapiens, KG1 cells, 72 hours
In short: (§1)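 Proliferation was read as OD at 450 nm after 1 h with CCK-8, following 72 h drug exposure at 37 °C, 5% CO2. Inhibition was calculated against cells in 0.5% DMSO minus medium blank, and the 50% point reported. The compound series (10–0.004 μM, pre-addition, in 5% DMSO) was added one day after plating KG-1, SNU-16 and RT-112 at 30,000, 5,000 and 1,000 cells/well respectively.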

[5] = tested on: SNU-16; test: Cellular Proliferation Assay (Cell Counting Kit-8), SNU-16; assay type: cell-based; settings: Homo sapiens, SNU-16 cells, 72 hours
In short: as §1

[6] = tested on: RT-112; test: Cellular Proliferation Assay (Cell Counting Kit-8), RT-112; assay type: cell-based; settings: Homo sapiens, RT-112 cells, 72 hours
In short: as §1

FGFR3 kinase, sequence (P22607 23-806): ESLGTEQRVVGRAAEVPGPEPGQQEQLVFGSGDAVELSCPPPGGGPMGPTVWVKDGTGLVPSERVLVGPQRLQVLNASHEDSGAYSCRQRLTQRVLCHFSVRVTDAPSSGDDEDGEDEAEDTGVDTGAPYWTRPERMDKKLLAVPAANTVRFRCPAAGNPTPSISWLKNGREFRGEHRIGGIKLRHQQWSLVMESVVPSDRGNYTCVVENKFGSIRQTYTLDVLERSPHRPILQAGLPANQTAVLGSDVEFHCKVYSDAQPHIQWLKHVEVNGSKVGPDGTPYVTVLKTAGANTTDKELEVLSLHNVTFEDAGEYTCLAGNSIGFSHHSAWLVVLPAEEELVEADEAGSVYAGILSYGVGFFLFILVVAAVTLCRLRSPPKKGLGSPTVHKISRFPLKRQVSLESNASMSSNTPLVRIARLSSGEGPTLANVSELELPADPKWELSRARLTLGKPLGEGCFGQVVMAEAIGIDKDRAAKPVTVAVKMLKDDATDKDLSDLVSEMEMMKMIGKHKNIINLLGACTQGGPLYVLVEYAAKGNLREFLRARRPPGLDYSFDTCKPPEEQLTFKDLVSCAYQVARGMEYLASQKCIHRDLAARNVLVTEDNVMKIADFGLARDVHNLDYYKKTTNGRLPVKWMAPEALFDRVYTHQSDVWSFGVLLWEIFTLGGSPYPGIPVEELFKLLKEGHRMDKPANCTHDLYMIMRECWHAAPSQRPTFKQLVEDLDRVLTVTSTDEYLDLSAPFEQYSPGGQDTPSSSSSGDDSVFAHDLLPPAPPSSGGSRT
Recombinant human FGFR2, sequence (P21802 22-821): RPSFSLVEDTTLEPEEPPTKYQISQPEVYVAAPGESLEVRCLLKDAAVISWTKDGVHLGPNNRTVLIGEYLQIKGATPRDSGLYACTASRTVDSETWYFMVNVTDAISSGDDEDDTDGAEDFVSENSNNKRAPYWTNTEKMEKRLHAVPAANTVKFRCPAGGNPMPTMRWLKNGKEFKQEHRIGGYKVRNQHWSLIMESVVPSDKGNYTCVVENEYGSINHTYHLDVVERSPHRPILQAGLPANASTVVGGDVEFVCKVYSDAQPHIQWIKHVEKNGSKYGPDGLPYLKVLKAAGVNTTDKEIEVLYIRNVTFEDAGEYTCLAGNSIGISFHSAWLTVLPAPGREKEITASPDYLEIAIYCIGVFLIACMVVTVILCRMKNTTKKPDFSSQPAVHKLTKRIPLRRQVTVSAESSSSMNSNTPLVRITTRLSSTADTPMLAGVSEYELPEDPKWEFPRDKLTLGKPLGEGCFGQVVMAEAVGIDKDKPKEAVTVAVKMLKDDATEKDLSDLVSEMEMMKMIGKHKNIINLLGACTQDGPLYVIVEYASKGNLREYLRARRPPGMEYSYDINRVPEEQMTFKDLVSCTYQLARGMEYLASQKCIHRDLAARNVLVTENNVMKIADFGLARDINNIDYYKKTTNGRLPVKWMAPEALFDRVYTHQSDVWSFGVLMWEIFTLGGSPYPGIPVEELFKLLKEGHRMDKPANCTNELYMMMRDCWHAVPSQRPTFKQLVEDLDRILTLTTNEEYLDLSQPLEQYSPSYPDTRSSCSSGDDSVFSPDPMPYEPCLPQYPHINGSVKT
Recombinant human FGFR1, sequence (P11362 22-822): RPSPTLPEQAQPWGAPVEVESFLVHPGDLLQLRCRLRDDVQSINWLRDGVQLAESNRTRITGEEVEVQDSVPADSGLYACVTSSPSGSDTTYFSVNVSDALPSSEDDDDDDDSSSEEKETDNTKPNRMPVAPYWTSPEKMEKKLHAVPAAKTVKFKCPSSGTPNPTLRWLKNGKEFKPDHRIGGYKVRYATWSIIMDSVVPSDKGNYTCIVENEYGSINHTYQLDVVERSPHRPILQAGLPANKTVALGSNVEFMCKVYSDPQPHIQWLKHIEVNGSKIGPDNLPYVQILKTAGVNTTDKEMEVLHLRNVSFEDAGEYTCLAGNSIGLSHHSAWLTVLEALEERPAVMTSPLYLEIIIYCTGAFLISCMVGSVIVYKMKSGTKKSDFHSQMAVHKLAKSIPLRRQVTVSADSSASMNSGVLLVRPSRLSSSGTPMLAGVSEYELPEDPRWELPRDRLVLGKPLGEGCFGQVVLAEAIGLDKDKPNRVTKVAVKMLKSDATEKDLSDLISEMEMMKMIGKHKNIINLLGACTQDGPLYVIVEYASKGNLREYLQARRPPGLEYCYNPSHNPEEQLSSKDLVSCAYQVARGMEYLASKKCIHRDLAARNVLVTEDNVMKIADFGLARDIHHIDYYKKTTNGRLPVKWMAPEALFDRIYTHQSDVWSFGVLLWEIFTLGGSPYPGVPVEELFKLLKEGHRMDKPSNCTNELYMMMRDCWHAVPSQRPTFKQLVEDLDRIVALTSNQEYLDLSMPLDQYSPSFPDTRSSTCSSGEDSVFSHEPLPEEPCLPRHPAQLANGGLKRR

Row | Structure (SMILES) | pIC50 [1] | pIC50 [2] | pIC50 [3] | pIC50 [4] | pIC50 [5] | pIC50 [6]
1 | CNC(=O)c1cc(CCc2ccc(Nc3cnn(C)c3)nc2)c(F)c(OC)c1 [Compound 103] | 7.49 | 7.68 | 7.33 | 6.86 | 6.86 | 6.18
2 | CNC(=O)c1cc(COc2cnc(Nc3ccc(N4C[C@@H](C)N[C@@H](C)C4)cc3)nc2)c(Cl)c(OC)c1 [Compound 186, 4-chloro-3-(((2-((4-((3S,5R)-3,5-dimethylpiperazin-1-yl)phenyl)amino)pyrimidin-5-yl)oxy)methyl)-5-methoxy-N-methylbenzamide] | 8.30 | 8.40 | 8.30 | 8.00 | 8.15 | 8.15
3 | CNC(=O)c1cc(CCc2cnc(Nc3cnn(C[C@@H](C)O)c3)nc2)c(Cl)c(OC)c1 [Compound 150] | 7.82 | 8.22 | 8.22 | 7.51 | 7.48 | 7.21
4 | CNC(=O)c1cc(CCc2cnc(Nc3cnn(CCN4CCCC4)c3)nc2)c(F)c(OC)c1 [Compound 135] | 7.66 | 7.72 | 7.66 | 6.43 | 7.34 | 6.64
5 | CNC(=O)c1cc(CCc2cnc(Nc3cnn([C@@H]4CCCN(C)C4)c3)nc2)c(F)c(OC)c1 [Compound 165, (R)-4-fluoro-3-methoxy-N-methyl-5-(2-(2-(1-(1-methylpiperidin-3-yl)-1H-pyrazol-4-ylamino)pyrimidin-5-yl)ethyl)benzamide] | 7.96 | 8.15 | 8.15 | 7.25 | 7.64 | 6.97
6 | CNC(=O)c1cc(OC)c(Cl)c(CCc2cnc(Nc3ccc(N4C[C@@H](C)N[C@@H](C)C4)cc3)nc2)c1F [Compound 91] | 7.70 | 7.80 | 7.77 | 7.49 | 7.72 | 7.19
7 | CNC(=O)c1cc(CCc2cnc(Nc3ccc(N4C[C@@H](C)N[C@@H](C)C4)cc3)nc2)c(F)c(OC)c1 [Compound 21, 3-(2-(2-((4-((3R,5S)-3,5-dimethylpiperazin-1-yl)phenyl)amino)pyrimidin-5-yl)ethyl)-4-fluoro-5-methoxy-N-methylbenzamide] | 8.05 | 8.22 | 7.85 | 7.40 | 7.80 | 7.28
8 | CCN1CC(n2cc(Nc3ncc(CCc4cc(C(=O)NC)cc(OC)c4F)cn3)cn2)C1 [Compound 167] | 7.74 | 8.00 | 7.82 | 7.21 | 7.32 | 6.42
9 | CNC(=O)c1cc(CCc2cnc(Nc3cnn([C@H]4CCN(C)C4)c3)nc2)c(F)c(OC)c1 [Compound 168] | 7.80 | 7.96 | 7.82 | 7.49 | 7.80 | 6.38
10 | CCN(CC)CCn1cc(Nc2ncc(OCc3cc(C(=O)NC)cc(OC)c3Cl)cn2)cn1 [Compound 190] | 7.92 | 8.05 | 8.15 | 7.43 | 7.80 | 7.77
11 | CNC(=O)c1cc(CCc2cnc(Nc3ccc(N4C[C@@H](C)N[C@@H](C)C4)c(F)c3)nc2)c(Cl)c(OC)c1 [Compound 204] | 8.05 | 8.30 | 8.10 | 7.74 | 8.15 | 7.82
12 | CNC(=O)c1cc(COc2cnc(Nc3ccc(N4C[C@@H](C)N[C@@H](C)C4)c(C)c3)nc2)c(Cl)c(OC)c1 [Compound 209] | 8.15 | 8.22 | 8.15 | 7.89 | 8.10 | 7.80
13 | CNC(=O)c1cc(CCc2cnc(Nc3cnn(CCO)c3)nc2)c(F)c(OC)c1 [Compound 114] | 7.92 | 8.30 | 7.85 | 7.15 | 7.06 | 6.23
14 | CNC(=O)c1cc(CCc2cnc(Nc3cnn(CCN(C)C)c3)nc2)c(F)c(OC)c1 [Compound 125] | 7.55 | 7.72 | 7.70 | 7.52 | 7.54 | 6.12
15 | CNC(=O)c1cc(COc2cnc(Nc3ccc(N4C[C@@H](C)N[C@@H](C)C4)nc3)nc2)c(Cl)c(OC)c1 [Compound 197] | 8.10 | 8.15 | 8.05 | 7.59 | 8.10 | 7.60
16 | CONC(=O)c1cc(CCc2cnc(Nc3cn[nH]c3)nc2)cc(OC)c1 [Compound 101] | 8.10 | 8.40 | 7.82 | 7.66 | 7.38 | 6.59
17 | CNC(=O)c1cc(CCc2cnc(Nc3cnn(C)c3)nc2)c(F)c(OC)c1 [Compound 25] | 7.82 | 8.10 | 7.52 | 7.41 | 7.64 | 6.66

Row | Structure (SMILES) | pIC50 [1] | pIC50 [2] | pIC50 [3] | pIC50 [4] | pIC50 [5] | pIC50 [6]
18 | CNC(=O)c1cc(COc2cnc(Nc3ccc(N4C[C@@H](C)N[C@@H](C)C4)c(C)c3)nc2)c(F)c(OC)c1 [Compound 194] | 7.85 | 7.85 | 7.70 | 7.22 | 7.51 | 7.57
19 | CNC(=O)c1cc(CCc2cnc(Nc3cnn(CCN4CCOCC4)c3)nc2)c(F)c(OC)c1 [Compound 139] | 7.92 | 8.22 | 8.10 | 7.19 | 7.66 | 6.84
20 | CNC(=O)c1cc(CCc2cnc(Nc3cnn(C4CCC4)c3)nc2)c(F)c(OC)c1 [Compound 10] | 7.60 | 8.30 | 8.10 | 7.74 | 7.66 | 7.54
21 | CNC(=O)c1cc(CCc2cnc(Nc3cnn(Cc4ccccn4)c3)nc2)c(F)c(OC)c1 [Compound 142] | 7.70 | 7.96 | 7.55 | 7.22 | 7.55 | 6.68
22 | CCNC(=O)c1cc(COc2cnc(Nc3ccc(N4C[C@@H](C)N[C@@H](C)C4)cc3)nc2)c(F)c(OC)c1 [Compound 205] | 7.44 | 7.60 | 7.55 | 7.17 | 7.43 | 7.01
23 | CNC(=O)c1cc(CCc2cnc(Nc3cnc4ccnn4c3)nc2)c(F)c(OC)c1 [Compound 94] | 6.79 | 7.28 | 6.67 | 6.46 | 6.77 | 6.54
24 | CNC(=O)c1cc(OC)c(Cl)c(/C=C/c2cnc(Nc3ccc(N4C[C@@H](C)N[C@@H](C)C4)cc3)nc2)c1F [Compound 8] | 8.22 | 8.30 | 7.85 | 7.96 | 7.85 | 7.72
25 | CNC(=O)c1cc(CCc2cnc(Nc3cnn(C4CCC4)c3)nc2)c(Cl)c(OC)c1 [Compound 81] | 8.10 | 8.30 | 7.96 | 7.80 | 7.60 | 8.00
26 | CNC(=O)c1cc(CCc2cnc(Nc3cnn(CCN4CCN(C)CC4)c3)nc2)c(Cl)c(OC)c1 [Compound 89] | 7.92 | 8.10 | 8.10 | 6.89 | 7.54 | 7.34
27 | CNC(=O)c1cc(CCc2cnc(Nc3ccnc(C)c3)nc2)c(F)c(OC)c1 [Compound 60, 4-fluoro-3-methoxy-N-methyl-5-(2-(2-((2-methylpyridin-4-yl)amino)pyrimidin-5-yl)ethyl)benzamide] | 7.80 | 8.15 | 7.64 | 7.29 | 7.34 | 6.86
28 | CNC(=O)c1cc(CCc2cnc(Nc3ccc(CN4CCN(C)CC4)cc3)nc2)c(F)c(OC)c1 [Compound 99] | 7.85 | 8.15 | 7.92 | 7.52 | 7.77 | 6.96
29 | CNC(=O)c1cc(CCc2cnc(Nc3ccc(N4CCOCC4)cc3)nc2)c(Cl)c(OC)c1 [Compound 85] | 7.82 | 8.05 | 7.77 | 7.52 | 7.03 | 7.59
30 | CNC(=O)c1cc(CCc2cnc(Nc3cnn(CCCOC)c3)nc2)c(F)c(OC)c1 [Compound 126] | 7.82 | 8.10 | 7.77 | 7.35 | 7.74 | 6.95
31 | CNC(=O)c1cc(CCc2cnc(Nc3cnn([C@@H]4CCN(C)C4)c3)nc2)c(F)c(OC)c1 [Compound 169] | 7.82 | 7.85 | 7.82 | 7.77 | 7.74 | 6.27
32 | CONC(=O)c1cc(CCc2cnc(Nc3ccc(N4C[C@@H](C)N[C@@H](C)C4)c(F)c3)nc2)cc(OC)c1 [Compound 54] | 8.22 | 8.52 | 8.22 | 7.74 | 8.00 | 7.51
33 | CCNC(=O)c1cc(CCc2cnc(Nc3cnn(C)c3)nc2)c(Cl)c(OC)c1 [Compound 147] | 7.72 | 8.00 | 7.66 | 7.32 | 7.34 | 6.48
